# Results: patent publication US6825185B2, “Substituted aryl compounds as novel cyclooxygenase-2 selective inhibitors, compositions and methods of use” (NitroMed, Inc., priority 2000, dated 2004)
# How the values were obtained:
# COX-2 = molecular target: T1, COX-2 (Homo sapiens, UniProt P35354); test: COX-2 enzyme activity in human whole blood (LPS induced, thromboxane B2 EIA); assay type: cell-based; parameters: Human blood (≈50 mL) from male or female donors who had not received any aspirin or NSAIDs for 14 days; endogenous in cells; host or cells: human whole blood from donors, LPS-induced; conditions: test compound at 10 μM
# T1 sequence (P35354 18-604): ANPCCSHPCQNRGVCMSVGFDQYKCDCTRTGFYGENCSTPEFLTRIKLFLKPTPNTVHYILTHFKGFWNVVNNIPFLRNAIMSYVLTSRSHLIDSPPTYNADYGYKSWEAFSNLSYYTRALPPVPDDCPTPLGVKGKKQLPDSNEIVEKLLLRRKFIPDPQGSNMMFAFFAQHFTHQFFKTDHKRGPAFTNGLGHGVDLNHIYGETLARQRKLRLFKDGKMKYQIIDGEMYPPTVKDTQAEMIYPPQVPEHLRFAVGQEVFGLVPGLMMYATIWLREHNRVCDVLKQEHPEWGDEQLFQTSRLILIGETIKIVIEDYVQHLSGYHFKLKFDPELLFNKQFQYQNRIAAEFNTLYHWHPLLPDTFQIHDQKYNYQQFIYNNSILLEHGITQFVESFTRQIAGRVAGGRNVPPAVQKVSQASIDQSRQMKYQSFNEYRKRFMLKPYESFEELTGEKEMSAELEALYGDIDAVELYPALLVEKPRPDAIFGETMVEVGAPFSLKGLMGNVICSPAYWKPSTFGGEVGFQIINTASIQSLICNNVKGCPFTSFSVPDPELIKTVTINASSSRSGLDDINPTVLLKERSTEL
# COX-1 = COX-1 (Homo sapiens, UniProt P23219); test: Human COX-1 enzyme activity (COX Inhibitor Screening Assay, prostaglandin EIA); assay type: biochemical; parameters: purchased Cayman Chemical; conditions: test compound at 100 μM
# Sequence of COX-1 (P23219 24-599): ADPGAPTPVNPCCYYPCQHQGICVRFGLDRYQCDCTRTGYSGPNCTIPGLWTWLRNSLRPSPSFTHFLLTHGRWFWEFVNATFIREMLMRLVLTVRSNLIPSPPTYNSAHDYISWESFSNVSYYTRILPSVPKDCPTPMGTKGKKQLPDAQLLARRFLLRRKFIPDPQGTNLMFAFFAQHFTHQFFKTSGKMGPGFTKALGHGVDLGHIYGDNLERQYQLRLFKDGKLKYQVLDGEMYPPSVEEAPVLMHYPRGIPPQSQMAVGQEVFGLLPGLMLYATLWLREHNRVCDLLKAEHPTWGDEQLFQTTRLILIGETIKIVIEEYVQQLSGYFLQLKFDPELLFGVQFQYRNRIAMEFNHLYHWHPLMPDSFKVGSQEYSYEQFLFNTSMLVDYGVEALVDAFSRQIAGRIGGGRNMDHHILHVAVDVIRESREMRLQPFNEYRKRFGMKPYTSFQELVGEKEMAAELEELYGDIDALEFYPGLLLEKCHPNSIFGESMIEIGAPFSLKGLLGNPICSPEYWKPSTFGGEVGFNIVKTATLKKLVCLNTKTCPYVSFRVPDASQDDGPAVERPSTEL
# Description: The human COX-1 and COX-2 enzyme activities and the measurement of the prostaglandin products synthesized were performed using the COX Inhibitor Screening Assay (Cayman Chemical, Ann Arbor, Mich.), which also contained the Prostaglandin Screening EIA Kit, used for prostaglandin quantification). The test compounds were dissolved at 50 times the highest final reaction concentration in DMSO or any other suitable solvent as stock solutions. These stock solutions were then diluted in the same solvent. Eight glass test tubes (13×100 mm) were placed in a 25° C. water bath. To each test tube was added 950 μL of reaction buffer (0.1 M Tris-HCl, pH 8.0, containing 5 mM EDTA, and 2 mM phenol), 10 μL of 100 µM heme solution, and 10 μL (5 units) of either human COX-1 or COX-2 enzyme and the resulting mixture was incubated for 2 minutes. Twenty μL of the solvent was added to one tube (100% initial activity or solvent control) and 20 μL of each dilution of the test compound was added to one tube each. Each tube was vortexed immediately after the addition. The enzyme was incubated with the inhibitor for 20 minutes at 25° C. The enzymatic reaction was then initiated by the addition of 10 μL of freshly prepared 10 mM arachidonic acid (neutralized with KOH), vortexed and then incubated for 2 minutes (or, in some cases as indicated, 30 seconds) at 37° C. The reaction was terminated by the addition of 50 μL of 1 M HCl, vortexed and placed at room temperature. One hundred μL of a saturated stannous chloride solution (50 mg/mL of 0.1 M HCl) was added and the reaction mixture was allowed to stand at room temperature for at least 5 minutes.
# The prostaglandins (PG) produced in the reactions were assayed, after a 2,000-fold dilution, using the Prostaglandin Screening EIA Kit (Cayman Chemical, Ann Arbor, Mich.). The assay contains an antibody with broad specificity for all the prostaglandin families (PGF, PGE, PGD, and thromboxane B-type) synthesized in the COX-1/COX-2 reactions. The synthesized prostaglandin competes with a PG-tagged acetylcholine esterase tracer for binding to the PG antibody. Binding of synthesized PG lowers the colorimetric development of the Ellman's Reagent (computed as %B/B0). The actual amount of synthesized PG was interpolated from a standard curve using known amounts of supplied prostaglandin E2 (PGE2) (PGE2 concentration vs. %B/B0). The data generated were the mean±standard deviation of triplicate wells in the EIA for a single reaction at a given inhibitor concentration. A plot of % of control (i.e., the solvent control without inhibitor) vs. test compound inhibitor concentration for both isoenzymes was used to determine the IC50 's for COX-1 and COX-2 for that test compound, when IC50's were calculated. The % inhibition for COX-1 and COX-2 enzyme activity by the test compounds at the indicated concentrations are given in Table 1.
Compound,COX-2 Inhibition (% at 10 μM) (COX-2),COX-1 Inhibition (% at 100 μM) (COX-1)
"CS(=O)(=O)c1ccc(-c2cc3c(cc2CC2CCCCC2)OCO3)cc1 [Example 1e, 1-(6-(Cyclohexylmethyl)(2-H-benzo(3,4-d)1,3-dioxolen-5-yl))-4-(methylsulfonyl) benzene]",90%,0%
"CS(=O)(=O)c1ccc(-c2cc3c(cc2C(=O)c2ccccc2)OCO3)cc1 [Example 3d, 6-(4-(Methylsulfonyl)phenyl)(2H-benzo(d)1,3-dioxolan-5-yl) phenyl ketone]",60%,0%
"CS(=O)(=O)c1ccc(-c2cc3c(cc2Cc2cccnc2)OCO3)cc1 [Example 6c, 4-(Methylsulfonyl)-1-(6-(3-pyridylmethyl)(2H-benzo(3,4-d)1,3-dioxolan-5-yl))benzene]",10%,30%
CS(=O)(=O)c1ccc(-c2cc3c(cc2CN2CCCCC2=O)OCO3)cc1 [Example 9c],30%,70%
"CS(=O)(=O)c1ccc(-c2cc3c(cc2C=C2CCCC2)OCO3)cc1 [Example 10a, 4-(6-(Cyclopentylidenemethyl)(2H-benzo(3,4-d)1,3-dioxolan-5-yl))-1-(methylsulfonyl)benzene]",90%,30%
"CS(=O)(=O)c1ccc(-c2cc3c(cc2Cc2cc(F)cc(F)c2)OCO3)cc1 [Example 15c, 5-(1-(3′,5′-Difluorophenyl)methyl)-1,2-methylenedioxy-4-(4-methylsulfonylphenyl)benzene]",85%,15%
